Literature values as cited in patent US20060079522A1, “Amino substituted aryloxybenzylpiperidine derivatives” (priority 2004, published 2006).
Where two headings read alike, the source gives them in different places.

Key:
MCH1 receptor [1] = target: T1, MCH1 receptor (Rattus norvegicus, UniProt P97639); settings: rat social interaction
T1 construct: SNAP-7941, a selective MCH1 small molecule antagonist, was evaluated in several animal models; host or cells: living rats (endogenous receptor)

MCH1 receptor [2] = settings: guinea pig maternal-separation vocalization
MCH1 receptor [3] = target: T1, MCH1 receptor; settings: rat forced-swim

T1 sequence (P97639 whole entry): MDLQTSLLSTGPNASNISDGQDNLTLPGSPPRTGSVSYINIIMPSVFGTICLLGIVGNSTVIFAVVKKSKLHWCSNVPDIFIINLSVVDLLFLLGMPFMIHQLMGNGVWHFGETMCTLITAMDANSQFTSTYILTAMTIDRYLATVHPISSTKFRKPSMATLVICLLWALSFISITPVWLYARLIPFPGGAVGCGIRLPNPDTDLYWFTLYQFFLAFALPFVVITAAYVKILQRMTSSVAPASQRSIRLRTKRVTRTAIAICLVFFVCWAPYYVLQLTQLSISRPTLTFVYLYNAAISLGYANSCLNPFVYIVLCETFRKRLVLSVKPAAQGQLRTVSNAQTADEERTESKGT

With COCC1=C(C(=O)OC)[C@H](c2ccc(F)c(F)c2)N(C(=O)NCCCN2CCC(c3cccc(NC(C)=O)c3)CC2)C(=O)N1 [SNAP-7941] as the compound, how does the “profile in behavioral model of depression and/or anxiety” value (“profile in behavioral model” for short) (MCH1 receptor [1]) read?
The value was “profile similar to clinically used anti-depressants and anxiolytics”.

And the “profile in behavioral model” value (MCH1 receptor [2])?
Its value is “profile similar to clinically used anti-depressants and anxiolytics”.

What about the “profile in behavioral model” value (MCH1 receptor [3]) of the same compound?
The value was “profile similar to clinically used anti-depressants and anxiolytics”.
